The subject of test [1] is Candida albicans. Description: Selectivity ratio of Ki for Candida albicans 149 1,3-beta-D-glucan synthase subunit FKS1p G1942T mutant to Ki for Candida albicans SC5314 wild type 1,3-beta-D-glucan synthase subunit FKS1p.
The subject of test [2] is Candida albicans. Description: Selectivity ratio of Ki for Candida albicans 119 1,3-beta-D-glucan synthase subunit FKS1p T1921C mutant to Ki for Candida albicans SC5314 wild type 1,3-beta-D-glucan synthase subunit FKS1p.

Numbered stars: 1 amine (or outer) side, 2 acyl side, 3 side chain; on linkers, the order of the positions; unused ones are H or OH. Bridge positions count the residues as written; N and C are the ends. Square brackets hold non-standard residues; d marks the D form. Peptide text beside a SMILES is read from it. * marks the point of attachment. pTerphenylCO(4''-OnC5H11) = CCCCCOc1ccc(-c2ccc(-c3ccc(C(=O)*)cc3)cc2)cc1; Orn(4R-OH,5R-OH) = O=C([C@H](C[C@@H](O)[C@@H](O)N[*:3])N[*:1])[*:2]; hTyr(3S-OH,4S-OH) = N[C@H](C(=O)O)[C@H](O)[C@@H](O)c1ccc(O)cc1; Pro(3S-OH,4S-Me) = C[C@H]1CN[C@H](C(=O)O)[C@H]1O; Hyp = O=C(O)[C@@H]1C[C@@H](O)CN1

As for `CCCCCOc1ccc(-c2ccc(-c3ccc(C(=O)N[C@H]4C[C@@H](O)[C@@H](O)NC(=O)[C@@H]5[C@@H](O)[C@@H](C)CN5C(=O)[C@H]([C@@H](C)O)NC(=O)[C@H]([C@H](O)[C@@H](O)c5ccc(O)cc5)NC(=O)[C@@H]5C[C@@H](O)CN5C(=O)[C@H]([C@@H](C)O)NC4=O)cc3)cc2)cc1` [ANIDULAFUNGIN] ({pTerphenylCO(4''-OnC5H11)}-[Orn(4R-OH,5R-OH)]T[Hyp][hTyr(3S-OH,4S-OH)]T[Pro(3S-OH,4S-Me)]; lactam 1-C), the Ratio Ki with Candida albicans [1] and with Candida albicans [2] was above 100 each time.

These data come from ChEMBL document CHEMBL1629579, “Correlating echinocandin MIC and kinetic inhibition of fks1 mutant glucan synthases for Candida albicans: implications for interpretive breakpoints” (Antimicrob Agents Chemother, 2009).
